Data: BigSolDB 2.1

For `O=C(O)COc1ccc2ccccc2c1`, the solubility (mole fraction) (in acetone, 278.15 K) was 0.038, the solubility (mole fraction) (in acetone, 283.15 K) was 0.0427 and the solubility (mole fraction) (in acetone, 288.15 K) was 0.0481. The solubility (mole fraction) (in acetone, 293.15 K) was 0.0543, the solubility (mole fraction) (in acetone, 298.15 K) was 0.0613 and the solubility (mole fraction) (in acetone, 303.15 K) was 0.0693. The solubility (mole fraction) (in acetone, 308.15 K) was 0.0785, the solubility (mole fraction) (in acetone, 313.15 K) was 0.089 and the solubility (mole fraction) (in acetone, 318.15 K) was 0.101. The solubility (mole fraction) (in acetone, 323.15 K) was 0.115, the solubility (mole fraction) (in acetonitrile, 278.15 K) was 0.00475 and the solubility (mole fraction) (in acetonitrile, 283.15 K) was 0.00574. The solubility (mole fraction) (in acetonitrile, 288.15 K) was 0.00695, the solubility (mole fraction) (in acetonitrile, 293.15 K) was 0.0084 and the solubility (mole fraction) (in acetonitrile, 298.15 K) was 0.0101. The solubility (mole fraction) (in acetonitrile, 303.15 K) was 0.0123, the solubility (mole fraction) (in acetonitrile, 308.15 K) was 0.0148 and the solubility (mole fraction) (in acetonitrile, 313.15 K) was 0.0178. It also gave a solubility (mole fraction) (in acetonitrile, 318.15 K) of 0.0214, a solubility (mole fraction) (in acetonitrile, 323.15 K) of 0.0258 and a solubility (mole fraction) (in ethanol, 278.15 K) of 0.0128. The solubility (mole fraction) (in ethanol, 283.15 K) was 0.0152, the solubility (mole fraction) (in ethanol, 288.15 K) was 0.0181 and the solubility (mole fraction) (in ethanol, 293.15 K) was 0.0217. It also gave a solubility (mole fraction) (in ethanol, 298.15 K) of 0.0261, a solubility (mole fraction) (in ethanol, 303.15 K) of 0.0315 and a solubility (mole fraction) (in ethanol, 308.15 K) of 0.0383. The solubility (mole fraction) (in ethanol, 313.15 K) was 0.0469, the solubility (mole fraction) (in ethanol, 318.15 K) was 0.0582 and the solubility (mole fraction) (in ethanol, 323.15 K) was 0.0728. For the same compound, the solubility (mole fraction) (in ethyl acetate, 278.15 K) was 0.0145, the solubility (mole fraction) (in ethyl acetate, 283.15 K) was 0.0167 and the solubility (mole fraction) (in ethyl acetate, 288.15 K) was 0.0192. It also gave a solubility (mole fraction) (in ethyl acetate, 293.15 K) of 0.0221, a solubility (mole fraction) (in ethyl acetate, 298.15 K) of 0.0255 and a solubility (mole fraction) (in ethyl acetate, 303.15 K) of 0.0294. For the same compound, the solubility (mole fraction) (in ethyl acetate, 308.15 K) was 0.034, the solubility (mole fraction) (in ethyl acetate, 313.15 K) was 0.0393 and the solubility (mole fraction) (in ethyl acetate, 318.15 K) was 0.0455. It also gave a solubility (mole fraction) (in ethyl acetate, 323.15 K) of 0.0527, a solubility (mole fraction) (in isobutanol, 278.15 K) of 0.00557 and a solubility (mole fraction) (in isobutanol, 283.15 K) of 0.00685. It also gave a solubility (mole fraction) (in isobutanol, 288.15 K) of 0.00854, a solubility (mole fraction) (in isobutanol, 293.15 K) of 0.0106 and a solubility (mole fraction) (in isobutanol, 298.15 K) of 0.0132. It also gave a solubility (mole fraction) (in isobutanol, 303.15 K) of 0.0165, a solubility (mole fraction) (in isobutanol, 308.15 K) of 0.0208 and a solubility (mole fraction) (in isobutanol, 313.15 K) of 0.0262. The solubility (mole fraction) (in isobutanol, 318.15 K) was 0.0333, the solubility (mole fraction) (in isobutanol, 323.15 K) was 0.0422 and the solubility (mole fraction) (in isopropanol, 278.15 K) was 0.00742. It also gave a solubility (mole fraction) (in isopropanol, 283.15 K) of 0.00922, a solubility (mole fraction) (in isopropanol, 288.15 K) of 0.0115 and a solubility (mole fraction) (in isopropanol, 293.15 K) of 0.0144. The solubility (mole fraction) (in isopropanol, 298.15 K) was 0.0171, the solubility (mole fraction) (in isopropanol, 303.15 K) was 0.0217 and the solubility (mole fraction) (in isopropanol, 308.15 K) was 0.0262. The solubility (mole fraction) (in isopropanol, 313.15 K) was 0.03, the solubility (mole fraction) (in isopropanol, 318.15 K) was 0.0359 and the solubility (mole fraction) (in isopropanol, 323.15 K) was 0.0407. The solubility (mole fraction) (in isopropyl acetate, 278.15 K) was 0.0105, the solubility (mole fraction) (in isopropyl acetate, 283.15 K) was 0.0121 and the solubility (mole fraction) (in isopropyl acetate, 288.15 K) was 0.014. For the same compound, the solubility (mole fraction) (in isopropyl acetate, 293.15 K) was 0.0162, the solubility (mole fraction) (in isopropyl acetate, 298.15 K) was 0.0187 and the solubility (mole fraction) (in isopropyl acetate, 303.15 K) was 0.0216. For the same compound, the solubility (mole fraction) (in isopropyl acetate, 308.15 K) was 0.025, the solubility (mole fraction) (in isopropyl acetate, 313.15 K) was 0.029 and the solubility (mole fraction) (in isopropyl acetate, 318.15 K) was 0.0336. It also gave a solubility (mole fraction) (in isopropyl acetate, 323.15 K) of 0.039, a solubility (mole fraction) (in methanol, 278.15 K) of 0.0132 and a solubility (mole fraction) (in methanol, 283.15 K) of 0.0157. It also gave a solubility (mole fraction) (in methanol, 288.15 K) of 0.0188, a solubility (mole fraction) (in methanol, 293.15 K) of 0.0227 and a solubility (mole fraction) (in methanol, 298.15 K) of 0.0276. For the same compound, the solubility (mole fraction) (in methanol, 303.15 K) was 0.0339, the solubility (mole fraction) (in methanol, 308.15 K) was 0.0415 and the solubility (mole fraction) (in methanol, 313.15 K) was 0.052. The solubility (mole fraction) (in methanol, 318.15 K) was 0.0656, the solubility (mole fraction) (in methanol, 323.15 K) was 0.0846 and the solubility (mole fraction) (in methyl acetate, 278.15 K) was 0.0156. It also gave a solubility (mole fraction) (in methyl acetate, 283.15 K) of 0.0181, a solubility (mole fraction) (in methyl acetate, 288.15 K) of 0.021 and a solubility (mole fraction) (in methyl acetate, 293.15 K) of 0.0243. The solubility (mole fraction) (in methyl acetate, 298.15 K) was 0.0283, the solubility (mole fraction) (in methyl acetate, 303.15 K) was 0.0329 and the solubility (mole fraction) (in methyl acetate, 308.15 K) was 0.0382. For the same compound, the solubility (mole fraction) (in methyl acetate, 313.15 K) was 0.0445, the solubility (mole fraction) (in methyl acetate, 318.15 K) was 0.0517 and the solubility (mole fraction) (in methyl acetate, 323.15 K) was 0.0602. The solubility (mole fraction) (in n-pentanol, 278.15 K) was 0.0114, the solubility (mole fraction) (in n-pentanol, 283.15 K) was 0.0137 and the solubility (mole fraction) (in n-pentanol, 288.15 K) was 0.0164. It also gave a solubility (mole fraction) (in n-pentanol, 293.15 K) of 0.019, a solubility (mole fraction) (in n-pentanol, 298.15 K) of 0.0242 and a solubility (mole fraction) (in n-pentanol, 303.15 K) of 0.0294. For the same compound, the solubility (mole fraction) (in n-pentanol, 308.15 K) was 0.0362, the solubility (mole fraction) (in n-pentanol, 313.15 K) was 0.0433 and the solubility (mole fraction) (in n-pentanol, 318.15 K) was 0.0526. It also gave a solubility (mole fraction) (in n-pentanol, 323.15 K) of 0.0691, a solubility (mole fraction) (in n-propanol, 278.15 K) of 0.0101 and a solubility (mole fraction) (in n-propanol, 283.15 K) of 0.012. The solubility (mole fraction) (in n-propanol, 288.15 K) was 0.0146, the solubility (mole fraction) (in n-propanol, 293.15 K) was 0.0178 and the solubility (mole fraction) (in n-propanol, 298.15 K) was 0.0214. For the same compound, the solubility (mole fraction) (in n-propanol, 303.15 K) was 0.0273, the solubility (mole fraction) (in n-propanol, 308.15 K) was 0.0324 and the solubility (mole fraction) (in n-propanol, 313.15 K) was 0.04. The solubility (mole fraction) (in n-propanol, 318.15 K) was 0.0506, the solubility (mole fraction) (in n-propanol, 323.15 K) was 0.0635 and the solubility (mole fraction) (in n-propyl acetate, 278.15 K) was 0.0123. It also gave a solubility (mole fraction) (in n-propyl acetate, 283.15 K) of 0.0142, a solubility (mole fraction) (in n-propyl acetate, 288.15 K) of 0.0164 and a solubility (mole fraction) (in n-propyl acetate, 293.15 K) of 0.0189. It also gave a solubility (mole fraction) (in n-propyl acetate, 298.15 K) of 0.0219, a solubility (mole fraction) (in n-propyl acetate, 303.15 K) of 0.0253 and a solubility (mole fraction) (in n-propyl acetate, 308.15 K) of 0.0293. For the same compound, the solubility (mole fraction) (in n-propyl acetate, 313.15 K) was 0.0339, the solubility (mole fraction) (in n-propyl acetate, 318.15 K) was 0.0393 and the solubility (mole fraction) (in n-propyl acetate, 323.15 K) was 0.0454.
